Results as given in patent US11793775B2, “Combined therapy for treating Alzheimer's disease” (MERRY LIFE BIOMEDICAL COMPANY, LTD., priority 2021, dated 2023).

Tests used:
[1] = Stability of TML-6 in TML-6 diet by LC/MS/MS; format: physicochemical; conditions: rodent chow supplemented with TML-6, LC/MS/MS
Experimental: TML-6, a small molecule curcumin analog, was used in this study. A regular rodent chow (Laboratory Rodent Diet 5001) supplemented with TML-6 at 100 mg/kg rodent chow was provided by Merry Life Biomedical company, Ltd. Content, purity, and stability of TML-6 in TML-6 diet at different storage conditions were analyzed using LC/MS/MS via service provided by the Development Center for Biotechnology, Taiwan. TML-6 diet was stored at 4° C. and was added to mouse cages twice a week for ad libitum feeding regimens. Daily uptake of TML-6 in APP/PS1 mice was estimated based on average consumption of rodent chow supplemented with TML-6 at 100 mg/kg chow for 24 hr or 8 days. Briefly, three APP/PS1 mice were housed individually in metabolic cages with an apparatus for measuring food-intake. Estimated TML-6 uptake per kg body weight per day was calculated by multiplying the daily consumption of TML-6 supplemented chow by the amount of TML-6 in the chow divided by body weight.

Aβ plaques = experiment: Aβ plaque deposition by Amylo-glo staining of brain sections; format: in vivo; conditions: cortex and hippocampus, APP/PS1 mice at 7 months, 4 months treatment, vs APP/PS1 controls
Experimental: (§1) For study of combination treatment, APP/PS1 mice were randomly assigned into four groups and were subjected to the treatments at 3 months of age (the early/prodromal stage of AD) for 4 months. Wt littermates (n=10) were also included for behavioral tests as a WT control group at 7 months. […] Body weight was recorded weekly. After 4 months of treatments, mice at age of 7 months were subjected to the following examinations.
(§2) Brain sections were fixed in 4% paraformaldehyde followed by cryoprotection with 30% sucrose in 1×PBS. Floating sections at 30 μm thickness were stored in 1×PBS with 0.05% sodium azide at 4° C. until use. Amylo-Glo RTD™ (TR-400-AG, Biosensis, Thebarton, Australia) was used for detection of amyloid-β (Aβ) plaques in the brain sections per manufacturer's instruction. The sections were mounted on the slide covered with mounting medium (Vectashield H-1000, Vector Laborotories, Burlingame, Calif., USA). Images were acquired using Leica confocal microscopy imaging system. Numbers of Aβ deposits and fluorescent area positive for AP deposits were normalized with total area of the section using MetaMorph imaging software. Quantification for sizes of AP deposits larger or smaller than 500 μm^2 were presented. […]

APP/PS1 mice [2] = experiment: Nesting test; format: in vivo
Experimental: as §1
Before the test for nesting, mice were individually housed for 5 hr. A nestlet pressed-cotton square (Ancare) was then placed into each cage 1 hour before the start of the dark cycle. Pictures of a nestlet were taken at indicated time points, and the entire test underwent for 52 hr. Nest construction was scored by two persons unaware of treatments using a 5-point scaling system as described previously (Yeh et al. 2015). Briefly, a score of 1 indicates a >90% intact nestlet, whereas a score of 5 indicates a <10% intact nestlet and the construction of a nest with an obvious crater.

APP/PS1 mice [3] = experiment: Morris water maze; format: in vivo; conditions: training course, compared with wt
Experimental: as §1
To evaluate spatial learning and memory deficits in APP/PS1 mice, a circular pool of 120 cm in diameter and 40 cm in height was used. The pool was filled with milk at 22-24 ° C. to approximately 20 cm in deep. A hidden platform was submerged 1 cm below the surface of milk. All experimental mice were transferred to the behavior testing room 30 min prior to the water maze to habituate to the test environment. During the training course, mice received 3 trials per day with a 60-minute inter-trial interval for 6 days. Probe test without the hidden platform was performed at day 7 and mice were allowed to investigate for 60 seconds. An overhead camera and a computerized video imaging analysis system were used to analyze the swimming paths and the escape latency.

microglia [4] = experiment: Microglial Aβ phagocytosis by co-localization of Iba1 and Aβ plaques; format: in vivo; conditions: brain of APP/PS1 mice, FIG. 5A
Experimental: as §1
as §2, with “Numbers of Aβ deposits and fluorescent area positive for AP deposits were normalized with total area of the section using MetaMorph imaging software.” left out
Since microglia are primary immune cells in the brain responsible for Aβ clearance, treatment effects on microglial Aβ phagocytosis was evaluated by co-localization of microglia and Aβ plaques using confocal microscopy.

microglia [5] = experiment: Morphological analyses of microglia (neurite outgrowth analyses); format: in vivo, APP/PS1 mice; conditions: total length of cell-associated skeletonized outgrowth, FIG. 5G

CCN(CC)C(=O)CC(C)(C(=O)/C=C/c1ccc(OC)c(OC)c1)C(=O)/C=C/c1ccc(OC)c(OC)c1 [TML-6]
amount of TML-6 in rodent chow at various storage conditions [1]: stable
Aβ depositions (Amylo-glo staining) (Aβ plaques): lower levels of Aβ depositions
nesting scores (APP/PS1 mice [2]; two-way ANOVA, vs APP/PS1 controls, FIG. 4A): significant improvements
slopes of nesting scores, p (linear regression) (APP/PS1 mice [2]; vs APP/PS1 controls, FIG. 4B): 0.07173
slopes of nesting scores, p (linear regression) (APP/PS1 mice [2]; vs wt): 0.1648
latency of finding the hidden platform (APP/PS1 mice [3]): comparable to that of wt
microglial Aβ phagocytosis (co-localization of Iba1 and Aβ plaques) (microglia [4]): not affected
total outgrowth of microglia (microglia [5]): increased
